Measured values published in US20090156577A1, “7-AMINO ALKYLIDENYL-HETEROCYCLIC QUINOLONES AND NAPHTHYRIDONES” (priority 2004, published 2009).
In brackets after ≈: the same amount, converted by molar mass. Counter-ions that a name gives are not always drawn. Like-named read-outs stand apart in the source and are kept apart here.

System: pathogenic bacteria
Experiment: MIC by microdilution broth method (NCCLS M7-A4), in vitro antibacterial activity
Assay type: cell-based
Procedure, shortened: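 Broth microdilution per NCCLS M7-A4: two-fold serial dilutions in cation-adjusted Mueller-Hinton broth, inoculum about 5×10^4 CFU/well. Trays incubated 16–20 h at 35 °C. MIC read by comparing growth against no-compound growth controls.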

[1] = Staphylococcus aureus, Organism A: Staphylococcus aureus OC4172, read-out: MIC
[2] = Streptococcus pneumoniae, ATCC49619, Organism E: Streptococcus pneumoniae ATCC 49619, read-out: MIC
[3] = Streptococcus pneumoniae, Organism B: fluoroquinolone-resistant clinical isolate of Streptococcus pneumoniae (QRDR amino acid substitutions)
[4] = Streptococcus pneumoniae, Organism C: fluoroquinolone-resistant clinical isolate of Streptococcus pneumoniae (QRDR amino acid substitutions)
[5] = Streptococcus pneumoniae, Organism D: fluoroquinolone-resistant clinical isolate of Streptococcus pneumoniae (QRDR amino acid substitutions)

| Structure (SMILES) | MIC [1] | MIC [2] | MIC [3] | MIC [4] | MIC [5] |
| --- | --- | --- | --- | --- | --- |
| C[C@H]1COc2c(N3CCC(=C(F)CN(C)C)CC3)c(F)cc3c(=O)c(C(=O)O)cn1c23 [Compound 295, 9-[4-(2-Dimethylamino-1-fluoro-ethylidene)-piperidin-1-yl]-8-fluoro-(3S)-3-methyl-6-oxo-2,3-dihydro-6H-1-oxa-3a-aza-phenalene-5-carboxylic Acid] | 0.5 µg/mL (≈ 1.15 µM) | 2 µg/mL (≈ 4.61 µM) | 16 µg/mL (≈ 36.9 µM) | 16 µg/mL (≈ 36.9 µM) | 8 µg/mL (≈ 18.5 µM) |
| COc1c(N2CCC(=C(C#N)CN)CC2)c(F)cc2c(=O)c(C(=O)O)cn(C3CC3)c12 [Compound 433, 7-[4-(2-Amino-1-cyano-ethylidene)-piperidin-1-yl]-1-cyclopropyl-6-fluoro-8-methoxy-4-oxo-1,4-dihydro-quinoline-3-carboxylic Acid] | ≤ 0.015 µg/mL | 0.12 µg/mL (≈ 0.281 µM) | – | 0.5 µg/mL (≈ 1.17 µM) | 0.5 µg/mL (≈ 1.17 µM) |
| NCC(F)=C1CCN(c2cc3c(cc2F)c(=O)c(C(=O)O)cn3C2CC2)CC1 [Compound 5, 7-[4-(2-Amino-1-fluoro-ethylidene)-piperidin-1-yl]-l - cyclopropyl-6-fluoro-4-oxo-1,4-dihydro-quinoline-3-carboxylic acid trifluoroacetic acid salt] | 0.03 µg/mL | – | – | 1 µg/mL | – |
| COc1c(N2CCC/C(=C(/C)CN)C2)c(F)cc2c(=O)c(C(=O)O)cn(C3CC3)c12 [Compound 392, (E)-7-[3-(2-Amino-1-methyl-ethylidene)-piperidin-1-yl]-1-cyclopropyl-6-fluoro-8-methoxy-4-oxo-1,4-dihydro-quinoline-3-carboxylic acid] | 0.25 µg/mL (≈ 0.602 µM) | 1 µg/mL (≈ 2.41 µM) | 16 µg/mL (≈ 38.5 µM) | > 16 µg/mL | 8 µg/mL (≈ 19.3 µM) |
| COc1c(N2CCC/C(=C(/Cl)CN)CC2)c(F)cc2c(=O)c(C(=O)O)cn(C3CC3)c12 [Compound 393, (Z)-7-[4-(2-Amino-1-chloro-ethylidene)-azepan-1-yl]-1-cyclopropyl-6-fluoro-8-methoxy-4-oxo-1,4-dihydro-quinoline-3-carboxylic acid] | 0.25 µg/mL (≈ 0.556 µM) | 0.5 µg/mL (≈ 1.11 µM) | – | 8 µg/mL (≈ 17.8 µM) | 2 µg/mL (≈ 4.45 µM) |
